Reference: patent US4870207A, “Synthesis of arphamenine A” (Zaiden Hojin Biseibutsu Kagaku Kenkyu Kai, priority 1983, dated 1989)
pIC50: −log10 of the molar value. Where two headings read alike, the source gives them in different places.

Assays:
[1] = tested on: Delayed-Type Hypersensitivity (D.T.H.); assay: Delayed-Type Hypersensitivity (D.T.H.) technique, cell-mediated immunopotentiating activity; format: in vivo
From the text: Accordingly, they are useful as an immunopotentiating agent.

aminopeptidase B = target: T1, aminopeptidase B (Rattus norvegicus, UniProt O09175); assay: Aminopeptidase B-inhibitory activity; format: biochemical; settings: modification of the method of Hoppusu
T1 sequence (O09175 1-650): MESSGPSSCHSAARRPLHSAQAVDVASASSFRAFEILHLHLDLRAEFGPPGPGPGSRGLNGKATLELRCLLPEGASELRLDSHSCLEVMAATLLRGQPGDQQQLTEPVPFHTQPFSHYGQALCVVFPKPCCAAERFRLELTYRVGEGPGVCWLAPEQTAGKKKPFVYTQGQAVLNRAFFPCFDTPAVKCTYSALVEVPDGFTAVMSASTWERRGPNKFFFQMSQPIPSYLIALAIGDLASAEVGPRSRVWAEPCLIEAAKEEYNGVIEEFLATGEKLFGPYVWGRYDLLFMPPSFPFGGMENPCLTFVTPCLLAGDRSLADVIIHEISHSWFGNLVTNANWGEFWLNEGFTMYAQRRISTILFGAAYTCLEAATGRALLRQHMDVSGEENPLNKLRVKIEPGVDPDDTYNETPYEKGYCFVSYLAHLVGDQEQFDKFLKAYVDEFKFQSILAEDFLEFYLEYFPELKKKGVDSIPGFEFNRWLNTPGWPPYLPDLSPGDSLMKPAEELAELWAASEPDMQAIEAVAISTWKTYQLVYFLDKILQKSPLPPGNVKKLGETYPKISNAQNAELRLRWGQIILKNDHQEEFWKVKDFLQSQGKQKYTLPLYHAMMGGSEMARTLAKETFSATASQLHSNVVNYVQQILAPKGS
Protocol: The aminopeptidase B-inhibitory activities (IC50) described above were determined by a modification of the method of Hoppusu disclosed in the specification of U.S. Pat. No. 4,595,698.

[2] = background statement, see U.S. Pat. No. 4,595,698; cited from earlier work
[3] = background statement, see U.S. Pat. No. 4,595,698; cited from earlier work; remark: listed apart in the source

N=C(N)NCCC[C@H](N)C(=O)C[C@H](Cc1ccccc1)C(=O)O [Substance (I"), epi-arphamenine A]
cell-mediated immunopotentiating activity [1]: exhibit a cell-mediated immunopotentiating activity

N=C(N)NCCC[C@H](N)C(=O)C[C@@H](Cc1ccccc1)C(=O)O [Substance (I'), arphamenine A]
pIC50 (aminopeptidase B): 7.66 | cell-mediated immunopotentiating activity ([1]; listed as (Ia)): exhibit a cell-mediated immunopotentiating activity

N=C(N)NCCC[C@H](N)C(=O)C[C@@H](Cc1ccccc1)C(=O)O [naturally occuring arphamenine A, arphamenine A]
pIC50 (aminopeptidase B): 7.81 | immunopotentiating activity [2]: shows an immunopotentiating activity | analgesic activity [3]: an analgesic activity
